In one data set the test system is THP-1. In words: Anti-inflammatory activity against LPS-induced human THP-1 cells assessed as reduction in iNOS protein expression by Western blot analysis. The class given is functional, cell-based. As to conditions: dose 20-80 µM.
In data set [1] the target is T1, Nuclear factor NF-kappa-B complex (Homo sapiens) (UniProt Q00653+P19838+Q04206). In words: Inhibition of NFkappaB signaling pathway in LPS-induced human THP-1 cells assessed as reduction in p65 phosphorylation by Western blot analysis. Type of data set: cell-based.
T1 sequence (P19838 whole entry, looked up): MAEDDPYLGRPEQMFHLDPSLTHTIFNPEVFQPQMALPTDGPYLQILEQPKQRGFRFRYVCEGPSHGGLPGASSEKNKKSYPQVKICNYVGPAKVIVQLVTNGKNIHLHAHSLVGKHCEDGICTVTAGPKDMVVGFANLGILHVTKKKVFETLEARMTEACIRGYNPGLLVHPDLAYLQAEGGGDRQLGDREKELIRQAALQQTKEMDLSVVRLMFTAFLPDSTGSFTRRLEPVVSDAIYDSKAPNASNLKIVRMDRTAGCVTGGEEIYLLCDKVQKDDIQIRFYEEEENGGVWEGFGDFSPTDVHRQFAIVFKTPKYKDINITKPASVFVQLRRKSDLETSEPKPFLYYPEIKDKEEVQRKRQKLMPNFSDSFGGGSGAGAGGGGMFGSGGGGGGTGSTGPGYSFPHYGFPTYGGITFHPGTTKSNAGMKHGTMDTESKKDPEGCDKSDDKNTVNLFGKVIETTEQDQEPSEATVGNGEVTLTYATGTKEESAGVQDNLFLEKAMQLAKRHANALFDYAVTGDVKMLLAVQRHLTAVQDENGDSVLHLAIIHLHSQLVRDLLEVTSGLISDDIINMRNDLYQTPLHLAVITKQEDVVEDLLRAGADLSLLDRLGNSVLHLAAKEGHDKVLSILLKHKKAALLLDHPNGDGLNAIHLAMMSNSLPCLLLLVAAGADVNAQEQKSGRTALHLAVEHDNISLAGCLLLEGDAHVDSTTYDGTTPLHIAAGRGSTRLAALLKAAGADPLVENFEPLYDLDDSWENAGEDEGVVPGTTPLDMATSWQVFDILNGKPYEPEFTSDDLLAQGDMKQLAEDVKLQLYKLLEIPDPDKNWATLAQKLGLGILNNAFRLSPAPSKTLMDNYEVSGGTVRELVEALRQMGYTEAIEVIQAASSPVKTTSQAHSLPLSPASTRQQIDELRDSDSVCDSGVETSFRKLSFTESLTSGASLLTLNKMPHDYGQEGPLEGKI
T1 sequence (Q00653 whole entry, looked up): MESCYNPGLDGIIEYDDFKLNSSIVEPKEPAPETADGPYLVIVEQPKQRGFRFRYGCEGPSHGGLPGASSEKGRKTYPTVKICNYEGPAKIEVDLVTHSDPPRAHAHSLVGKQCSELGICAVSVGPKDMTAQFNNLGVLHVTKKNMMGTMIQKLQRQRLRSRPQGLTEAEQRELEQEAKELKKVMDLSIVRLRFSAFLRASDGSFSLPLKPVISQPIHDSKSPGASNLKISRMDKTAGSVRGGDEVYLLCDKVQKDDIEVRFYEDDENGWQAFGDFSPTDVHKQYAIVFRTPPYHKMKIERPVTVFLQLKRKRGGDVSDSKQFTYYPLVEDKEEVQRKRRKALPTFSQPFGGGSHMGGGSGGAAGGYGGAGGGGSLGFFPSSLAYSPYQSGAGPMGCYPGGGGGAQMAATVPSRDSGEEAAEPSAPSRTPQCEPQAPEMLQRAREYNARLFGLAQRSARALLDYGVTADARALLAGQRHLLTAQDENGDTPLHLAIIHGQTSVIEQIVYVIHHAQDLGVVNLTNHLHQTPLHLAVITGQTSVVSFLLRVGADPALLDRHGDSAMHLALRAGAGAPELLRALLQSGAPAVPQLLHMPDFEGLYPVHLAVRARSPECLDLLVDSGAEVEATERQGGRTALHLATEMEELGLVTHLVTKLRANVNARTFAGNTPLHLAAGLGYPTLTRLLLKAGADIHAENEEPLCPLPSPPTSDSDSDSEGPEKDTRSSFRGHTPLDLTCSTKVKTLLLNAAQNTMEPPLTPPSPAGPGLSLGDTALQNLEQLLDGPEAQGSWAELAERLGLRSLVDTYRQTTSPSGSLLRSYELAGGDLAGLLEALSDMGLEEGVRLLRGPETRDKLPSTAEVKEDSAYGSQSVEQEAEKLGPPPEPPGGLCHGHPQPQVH
T1 sequence (Q04206 whole entry, looked up): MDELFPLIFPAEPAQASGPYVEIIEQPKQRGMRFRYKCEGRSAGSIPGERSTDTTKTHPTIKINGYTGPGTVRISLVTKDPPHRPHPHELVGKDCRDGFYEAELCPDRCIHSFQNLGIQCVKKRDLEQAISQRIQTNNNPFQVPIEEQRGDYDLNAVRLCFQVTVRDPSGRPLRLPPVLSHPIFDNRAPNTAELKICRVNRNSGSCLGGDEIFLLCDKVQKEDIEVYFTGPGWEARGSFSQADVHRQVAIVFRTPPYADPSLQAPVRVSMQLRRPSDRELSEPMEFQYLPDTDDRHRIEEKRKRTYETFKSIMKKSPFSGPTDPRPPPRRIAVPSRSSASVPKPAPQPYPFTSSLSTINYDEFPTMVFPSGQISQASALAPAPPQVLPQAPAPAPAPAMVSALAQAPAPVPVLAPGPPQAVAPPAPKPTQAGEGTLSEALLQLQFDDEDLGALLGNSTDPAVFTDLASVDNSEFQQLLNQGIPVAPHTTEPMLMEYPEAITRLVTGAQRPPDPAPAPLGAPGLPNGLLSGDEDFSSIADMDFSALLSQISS
The test system of data set [2] is RAW264.7. In words: Anti-inflammatory activity against mouse RAW264.7 cells assessed as inhibition of LPS-induced NO production at 80 uM pre-incubated for 1 hr followed by compound addition and measured after 18 hrs by Griess reagent based analysis. Type of data set: functional, cell-based. As to conditions: time 19.0 hrs. For orientation: Nitrite, measured by Griess reagent, commonly stands in for NO production.

For data set [3], the target named is T1, Nuclear factor NF-kappa-B complex (Homo sapiens). In words: Inhibition of NFkappaB signaling pathway in LPS-induced human THP-1 cells assessed as reduction in IKKalpha/beta phosphorylation by Western blot analysis. Type of data set: cell-based. Background: A western blot detects proteins with antibodies after separation by electrophoresis.
Data set [4] deals with RAW264.7. In words: Anti-inflammatory activity against mouse RAW264.7 cells assessed as reduction in LPS-induced NO production pre-incubated for 1 hr followed by compound addition and measured after 18 hrs by Griess reagent based analysis. The class given is functional, cell-based. As to conditions: dose 5-80 µM, time 19.0 hrs.
The subject of data set [5] is RAW264.7. In words: Cytotoxicity against mouse RAW264.7 cells assessed as reduction in cell viability upto 80 uM measured after 24 hrs by MTT assay. Conditions: raw264.7, 24 h. The class given is toxicity, cell-based. In general terms: Tetrazolium assays rely on reduction of a dye to a coloured formazan, in cell work by metabolically active cells.
The target of data set [6] is T1, Nuclear factor NF-kappa-B complex (Homo sapiens). In words: Inhibition of NFkappaB signaling pathway in LPS-induced human THP-1 cells assessed as reduction in IkappaBalpha phosphorylation by Western blot analysis. Type of data set: cell-based.

Each structure is given as a SMILES string. The source made the active and inactive calls. No cut-off for these calls is given here.

Our source for the Activity and inhibition values is ChEMBL document CHEMBL5325450, “Bisabolane-Type Sesquiterpenoids with a Tetrahydrofuran or Tetrahydropyran Ring from Vernonia solanifolia” (J Nat Prod, 2023).

On to `C[C@](O)(CO)[C@@H]1CC[C@@](C)([C@@H]2CC=C(C(=O)O)CC2)O1`, for which the Activity result was “Dose-Dependent Effect” with THP-1, “Dose-Dependent Effect” with RAW264.7 [4] and “Non-Toxic” in the data set on RAW264.7 [5]. Further, the inhibition entry in data set [1], in data set [3] and in data set [6] was “Active” in each case. Further, in the data set on RAW264.7 [2], the outcome was Active.
